According to ChEMBL document CHEMBL5537119 (Eur J Med Chem, 2024):

What was measured:
THP-1 [1] = assay: Antiproliferative activity against human THP-1 cells assessed as reduction in cell viability at 100 uM incubated for 72 hrs by MTT assay relative to control; type: functional
THP-1 [2] = assay: Inhibition of Class IIa/8 HDAC in human THP-1 cells at 100 uM preincubated for 18 hrs followed by substrate addition and measured after 3 hrs by fluorescence based microplate reader assay relative to control; type: cell-based; settings: time 21.0 hrs, values are per cent of control
Histone deacetylase 4 = Histone deacetylase 4 (Homo sapiens, UniProt P56524); assay: Inhibition of human recombinant TEV-8His-tagged HDAC4 (648 to 1057 residues) expressed in Escherichia coli (DE3) Rosetta cells using Boc-Lys-(Tfa)-AMC as substrate preincubated for 5 mins followed by substrate addition and measured after 90 mins by fluorescence based microplate reader analysis
Histone deacetylase 4, sequence (P56524 whole entry, the tested form may be a part): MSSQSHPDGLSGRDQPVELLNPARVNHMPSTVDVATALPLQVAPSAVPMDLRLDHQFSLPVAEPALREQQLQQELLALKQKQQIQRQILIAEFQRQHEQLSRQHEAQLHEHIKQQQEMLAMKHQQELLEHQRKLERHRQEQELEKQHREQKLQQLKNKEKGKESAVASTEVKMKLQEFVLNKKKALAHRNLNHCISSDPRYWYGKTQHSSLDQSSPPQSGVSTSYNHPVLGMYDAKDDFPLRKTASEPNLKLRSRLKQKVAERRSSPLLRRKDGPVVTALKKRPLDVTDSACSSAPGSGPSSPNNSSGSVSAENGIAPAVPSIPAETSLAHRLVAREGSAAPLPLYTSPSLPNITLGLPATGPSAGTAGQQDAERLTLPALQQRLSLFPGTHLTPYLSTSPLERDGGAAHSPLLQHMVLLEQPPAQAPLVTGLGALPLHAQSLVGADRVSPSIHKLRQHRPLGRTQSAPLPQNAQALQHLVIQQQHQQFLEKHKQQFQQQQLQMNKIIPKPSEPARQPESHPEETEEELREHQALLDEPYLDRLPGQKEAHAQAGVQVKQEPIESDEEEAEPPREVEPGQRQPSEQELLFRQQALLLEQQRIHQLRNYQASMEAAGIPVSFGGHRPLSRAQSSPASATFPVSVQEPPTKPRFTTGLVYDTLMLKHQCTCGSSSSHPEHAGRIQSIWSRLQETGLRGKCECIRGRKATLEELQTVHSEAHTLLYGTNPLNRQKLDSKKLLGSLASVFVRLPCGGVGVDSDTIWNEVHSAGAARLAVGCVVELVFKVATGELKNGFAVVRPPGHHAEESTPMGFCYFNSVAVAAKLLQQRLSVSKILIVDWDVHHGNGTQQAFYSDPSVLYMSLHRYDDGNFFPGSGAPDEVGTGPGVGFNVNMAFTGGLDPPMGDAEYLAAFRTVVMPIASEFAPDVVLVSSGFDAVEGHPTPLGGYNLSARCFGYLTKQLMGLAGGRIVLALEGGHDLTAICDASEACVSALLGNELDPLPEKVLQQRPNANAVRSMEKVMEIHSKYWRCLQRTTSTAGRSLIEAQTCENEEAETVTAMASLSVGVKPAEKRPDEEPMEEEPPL

[3] = Inhibition of Class IIa/8 HDAC in human THP-1 cells preincubated for 18 hrs followed by substrate addition and measured after 3 hrs by fluorescence based microplate reader assay; type: cell-based
Histone deacetylase 5 = Histone deacetylase 5 (Homo sapiens, UniProt Q9UQL6); assay: Inhibition of HDAC5 (unknown origin)
Histone deacetylase 5, sequence (Q9UQL6 whole entry): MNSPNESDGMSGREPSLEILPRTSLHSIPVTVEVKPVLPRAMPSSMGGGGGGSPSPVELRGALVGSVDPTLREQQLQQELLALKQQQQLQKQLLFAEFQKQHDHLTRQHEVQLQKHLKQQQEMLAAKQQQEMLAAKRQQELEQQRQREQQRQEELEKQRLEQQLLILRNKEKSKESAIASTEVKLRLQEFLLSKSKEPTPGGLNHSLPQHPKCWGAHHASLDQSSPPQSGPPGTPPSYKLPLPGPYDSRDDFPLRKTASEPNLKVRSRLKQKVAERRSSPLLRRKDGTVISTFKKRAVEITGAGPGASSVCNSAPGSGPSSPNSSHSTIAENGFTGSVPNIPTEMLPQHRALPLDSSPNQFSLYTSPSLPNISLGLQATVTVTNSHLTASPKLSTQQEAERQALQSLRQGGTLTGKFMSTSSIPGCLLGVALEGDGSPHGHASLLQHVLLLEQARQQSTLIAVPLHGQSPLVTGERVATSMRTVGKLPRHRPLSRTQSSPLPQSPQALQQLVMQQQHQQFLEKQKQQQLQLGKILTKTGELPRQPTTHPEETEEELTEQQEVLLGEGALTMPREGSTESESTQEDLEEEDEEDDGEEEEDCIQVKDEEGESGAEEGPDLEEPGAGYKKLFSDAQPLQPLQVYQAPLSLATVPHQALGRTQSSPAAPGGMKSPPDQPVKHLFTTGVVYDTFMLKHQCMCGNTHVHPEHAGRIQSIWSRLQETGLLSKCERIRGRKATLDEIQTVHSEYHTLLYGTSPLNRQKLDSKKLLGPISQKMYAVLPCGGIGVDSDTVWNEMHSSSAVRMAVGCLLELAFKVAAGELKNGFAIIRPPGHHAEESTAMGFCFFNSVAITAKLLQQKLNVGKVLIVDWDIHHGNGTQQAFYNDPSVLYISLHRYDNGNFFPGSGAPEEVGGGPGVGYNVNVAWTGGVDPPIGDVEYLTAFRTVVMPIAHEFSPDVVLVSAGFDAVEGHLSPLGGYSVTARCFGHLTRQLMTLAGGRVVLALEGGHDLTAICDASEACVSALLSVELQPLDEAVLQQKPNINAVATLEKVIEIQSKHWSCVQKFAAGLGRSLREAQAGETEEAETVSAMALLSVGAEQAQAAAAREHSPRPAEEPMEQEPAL

Histone deacetylase 7 = target: T1, Histone deacetylase 7 (Homo sapiens, UniProt Q8WUI4); assay: Inhibition of HDAC7 (unknown origin)
T1 sequence (Q8WUI4 whole entry): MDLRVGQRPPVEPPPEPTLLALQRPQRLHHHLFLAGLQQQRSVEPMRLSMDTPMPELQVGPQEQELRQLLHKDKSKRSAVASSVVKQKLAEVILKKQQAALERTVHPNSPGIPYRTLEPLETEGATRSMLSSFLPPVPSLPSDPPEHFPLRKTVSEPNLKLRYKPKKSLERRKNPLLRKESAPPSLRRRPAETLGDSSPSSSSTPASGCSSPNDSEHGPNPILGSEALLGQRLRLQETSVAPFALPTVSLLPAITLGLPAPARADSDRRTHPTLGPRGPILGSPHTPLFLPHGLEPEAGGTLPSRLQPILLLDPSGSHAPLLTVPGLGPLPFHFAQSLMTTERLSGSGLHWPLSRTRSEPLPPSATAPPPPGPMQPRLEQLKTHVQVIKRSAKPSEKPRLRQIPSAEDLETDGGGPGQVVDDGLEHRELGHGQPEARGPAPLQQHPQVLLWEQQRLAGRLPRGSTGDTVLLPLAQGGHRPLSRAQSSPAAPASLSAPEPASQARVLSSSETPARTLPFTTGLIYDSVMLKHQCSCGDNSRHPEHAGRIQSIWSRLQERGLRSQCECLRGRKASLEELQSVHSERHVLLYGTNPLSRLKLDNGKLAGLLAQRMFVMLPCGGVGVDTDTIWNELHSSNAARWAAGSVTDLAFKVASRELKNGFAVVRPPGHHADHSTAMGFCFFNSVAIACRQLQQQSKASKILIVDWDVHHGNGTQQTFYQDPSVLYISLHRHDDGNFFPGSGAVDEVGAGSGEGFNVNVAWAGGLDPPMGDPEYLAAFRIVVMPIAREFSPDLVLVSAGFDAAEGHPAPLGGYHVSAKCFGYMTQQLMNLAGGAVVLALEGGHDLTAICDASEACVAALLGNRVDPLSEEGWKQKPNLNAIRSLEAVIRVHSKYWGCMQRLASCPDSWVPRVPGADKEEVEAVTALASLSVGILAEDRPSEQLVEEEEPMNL

Histone deacetylase 8 = target: T2, Histone deacetylase 8 (Homo sapiens, UniProt Q9BY41); assay: Inhibition of human recombinant HDAC8 using Boc-Lys-(Tfa)-AMC as substrate preincubated for 5 mins followed by substrate addition and measured after 90 mins by fluorescence based microplate reader analysis
T2 sequence (Q9BY41 whole entry): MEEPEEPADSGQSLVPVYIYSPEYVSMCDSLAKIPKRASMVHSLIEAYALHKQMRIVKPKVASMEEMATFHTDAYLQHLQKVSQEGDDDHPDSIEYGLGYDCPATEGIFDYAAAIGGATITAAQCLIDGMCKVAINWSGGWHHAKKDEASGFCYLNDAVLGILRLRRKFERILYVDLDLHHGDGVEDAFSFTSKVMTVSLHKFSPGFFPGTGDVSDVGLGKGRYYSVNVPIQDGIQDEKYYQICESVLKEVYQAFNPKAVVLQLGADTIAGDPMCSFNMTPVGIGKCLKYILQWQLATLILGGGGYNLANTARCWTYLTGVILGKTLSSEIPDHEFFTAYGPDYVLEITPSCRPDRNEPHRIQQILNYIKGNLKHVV

Histone deacetylase 2 = Histone deacetylase 2 (Homo sapiens, UniProt Q92769); assay: Inhibition of human recombinant HDAC2 using Boc-Lys(Ac)-AMC as substrate preincubated for 5 mins followed by substrate addition and measured after 90 mins by fluorescence based microplate reader analysis
Histone deacetylase 2, sequence (Q92769 whole entry): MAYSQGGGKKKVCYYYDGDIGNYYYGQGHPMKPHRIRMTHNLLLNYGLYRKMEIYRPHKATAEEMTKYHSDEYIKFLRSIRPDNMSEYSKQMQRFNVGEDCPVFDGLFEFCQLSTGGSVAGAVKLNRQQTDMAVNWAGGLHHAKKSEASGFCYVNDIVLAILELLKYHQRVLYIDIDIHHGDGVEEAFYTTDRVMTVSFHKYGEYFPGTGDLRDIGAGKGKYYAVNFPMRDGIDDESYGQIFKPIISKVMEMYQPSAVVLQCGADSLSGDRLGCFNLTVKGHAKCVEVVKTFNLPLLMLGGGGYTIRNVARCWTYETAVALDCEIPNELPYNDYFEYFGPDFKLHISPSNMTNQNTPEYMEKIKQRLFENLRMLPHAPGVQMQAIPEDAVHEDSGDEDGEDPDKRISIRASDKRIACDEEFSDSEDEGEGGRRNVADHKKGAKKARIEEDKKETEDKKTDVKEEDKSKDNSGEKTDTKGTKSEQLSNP

THP-1 [4] = assay: Inhibition of Class I/IIb HDAC in human THP-1 cells at 100 uM preincubated for 18 hrs followed by substrate addition and measured after 3 hrs by fluorescence based microplate reader assay relative to control; type: cell-based; settings: time 21.0 hrs
Histone deacetylase 11 = target: T3, Histone deacetylase 11 (Homo sapiens, UniProt Q96DB2); assay: Inhibition of HDAC11 (unknown origin)
T3 sequence (Q96DB2 whole entry): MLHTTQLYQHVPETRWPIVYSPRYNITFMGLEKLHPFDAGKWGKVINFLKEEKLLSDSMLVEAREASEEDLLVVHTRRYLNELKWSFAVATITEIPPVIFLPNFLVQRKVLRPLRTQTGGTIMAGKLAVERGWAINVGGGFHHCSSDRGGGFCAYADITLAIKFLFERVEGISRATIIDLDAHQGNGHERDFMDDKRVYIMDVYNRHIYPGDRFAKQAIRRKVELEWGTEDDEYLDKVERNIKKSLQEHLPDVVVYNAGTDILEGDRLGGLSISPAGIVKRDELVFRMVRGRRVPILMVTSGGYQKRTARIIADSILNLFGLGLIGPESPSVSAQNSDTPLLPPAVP

Histone deacetylase 1 = Histone deacetylase 1 (Homo sapiens, UniProt Q13547); assay: Inhibition of HDAC1 (unknown origin)
Histone deacetylase 1, sequence (Q13547 whole entry): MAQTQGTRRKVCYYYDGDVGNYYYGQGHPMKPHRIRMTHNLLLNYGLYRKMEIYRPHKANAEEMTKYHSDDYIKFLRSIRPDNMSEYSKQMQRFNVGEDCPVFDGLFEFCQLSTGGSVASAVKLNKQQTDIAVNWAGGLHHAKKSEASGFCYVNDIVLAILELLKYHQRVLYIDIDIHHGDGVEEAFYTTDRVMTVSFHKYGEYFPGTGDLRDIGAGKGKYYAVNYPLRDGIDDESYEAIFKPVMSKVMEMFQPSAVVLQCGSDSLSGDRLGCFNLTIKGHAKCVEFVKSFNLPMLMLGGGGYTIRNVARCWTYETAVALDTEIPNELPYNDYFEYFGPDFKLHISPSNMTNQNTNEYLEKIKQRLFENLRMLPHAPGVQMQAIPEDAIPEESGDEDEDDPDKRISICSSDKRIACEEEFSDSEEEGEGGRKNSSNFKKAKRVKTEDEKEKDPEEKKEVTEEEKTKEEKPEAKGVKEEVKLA

IC50 (Histone deacetylase 4): 0.118 µM
IC50 [3]: 38.1 µM
IC50 (Histone deacetylase 5): 1.09 µM
IC50 (Histone deacetylase 7): 1.97 µM
IC50 (Histone deacetylase 8): > 100 µM
IC50 (Histone deacetylase 2): > 100 µM
IC50 (Histone deacetylase 11): > 100 µM
IC50 (Histone deacetylase 1): > 100 µM
Structure (SMILES): O=C(NOCc1coc(-c2ccccc2)n1)c1ccc(-c2noc(C(F)(F)F)n2)cc1
Activity (THP-1 [1]): 47%
residual activity (THP-1 [2]): 76%
inhibition (THP-1 [4]): 0%
